Experimental data as given in PubChem BioAssay AID1963838 (Molecular Pharmacology Branch, DTP, NCI, 2024).

Test system: 855422-203-R-J1-PDC complex spheroid viability
Assay: Anticancer human tumor 855422-203-R-J1-PDC patient-derived bladder carcinoma cell line growth inhibition [POLQ]
Conditions: for IC50: curve of first compound; for viability, T/C: stronger effect = lower value
Description: Multicellular complex tumor spheroid response to Polymerase (POL) inhibitors (novobiocin, ART-558, RP6685) in combination with a variety of drugs and investigational agents in selected tumor cell lines
The POL inhibitors (novobiocin, ART-558, and RP6685) were evaluated both individually and in combination with standard of care and investigational anticancer small molecules within a complex spheroid model of solid tumors. . Complex spheroids include a stromal component modeled by human endothelial cells (HUVEC) and fibroblasts modeled by human mesenchymal stem cells (MSCs). The concentration ranges selected for each drug and investigational agent were based upon clinically achievable concentrations if the clinical Cmax of the agent was known.
Compounds. The drugs and investigational agents: novobiocin (NSC847541), ART-558 (NSC835418), RP-6685 (NSC848927), peposertib (NSC802822), ceralasertib (NSC780249), elimusertib (NSC800525), camonsertib (NSC841442), AZD-1390 (NSC803789), olaparib (NSC753686), talazoparib (NSC767125), rucaparib (NSC756644), sotorasib (NSC818433), MRTX-1133 (NSC836407), SN-38 (NSC673596), topotecan (NSC609699), epotoside (NSC141540), doxorubicin (NSC123127), gemcitabine (NSC613327), 5-fluorouracil (NSC19893), paclitaxel (NSC125973), vemurafenib (NSC761431), MSA-2 (NSC828583), SN-011 (NSC837082), adavosertib (NSC754352), prexasertib (NSC758257), carboplatin (NSC241240) and oxaliplatin (NSC266046), were obtained from the National Cancer Institute (NCI) Developmental Therapeutics Program Chemical Repository (21). The FDA-approved anticancer drug set is available from the Developmental Therapeutics Program at https://dtp.cancer.gov/organization/dscb/obtaining/. […] The stock solutions were prepared in dimethyl sulfoxide (DMSO, Sigma-Aldrich, St. Louis, MO, cat. D2650), except for the platinum compounds which were prepared in saline (Quality Biological, Gaithersburg, MD, cat. 114-055-101), at 800-fold the tested concentration and stored at -70 degrees C prior to their use. All drugs and investigational agents were tested over a range starting from a high concentration at or near the clinical Cmax and decreasing in half-log increments. If the clinical Cmax for an agent had not been determined, the highest concentration tested was 10 microM, except for SN-38, which was tested at a high concentration of 1 microM.
Cell Culture. All cells were maintained in an incubator at 37 degrees C and 5% CO2 with 95% humidity. The PDC lines were cultured according to standard operating procedures established by the NCI PDMR (https://pdmr.cancer.gov). Table 3 of the manuscript, lists the cell lines along with the number of the three cell types plated to form the mct-spheroids and media for tumor cell growth. After thawing, all PDC lines, except 997537-175-T-J1-PDC and 415267-285-R-J2-PDC, were cultured in Matrigel-coated flasks prepared with a working solution of 1X Ham's F-12 nutrient mix, without supplementation (Thermo Fisher Scientific, cat. 11765054), 100 U/mL penicillin-streptomycin (Thermo Fisher Scientific, cat. 15140122), and 2.5% Matrigel (Corning Inc., Corning, NY, cat. 354248) for the first three passages. The two PDC lines 997537-175-T-J1-PDC and 415267-285-R-J2-PDC were cultured on uncoated flasks. The 857933-349-R-J2-PDC line was cultured in 6C/Colon 1B media containing advanced DMEM/F-12 (Thermo Fisher Scientific, cat. 12634028), 10 mM HEPES (Thermo Fisher Scientific, cat. 15630080), 1X GlutaMAX supplement (Thermo Fisher Scientific, cat. 35050061), 0.1 mg/mL primocin (InvivoGen, San Diego, CA, cat. ant-pm-2), 10% defined fetal bovine serum, heat inactivated (HyClone Laboratories Inc., Logan, UT, cat. SH30070.03HI), 50% L-WRN conditioned media (ATCC, cat. CRL-3276), 1.25 mM N-Acetyl-L-cysteine (Sigma-Aldrich, cat. A9165), 10 mM nicotinamide (Sigma-Aldrich, cat. N0636), 1X B-27 supplement (Thermo Fisher Scientific, cat. 17504044), 1X N-2 supplement (Thermo Fisher Scientific, cat. […]

[1] = second compound 0.0316 µM, first compound 0.0316 µM
[2] = second compound 0.0316 µM, first compound 0.1 µM
[3] = second compound 0.0316 µM, first compound 0.316 µM
[4] = second compound 0.0316 µM, first compound 1 µM
[5] = second compound 0.0316 µM, first compound 3.16 µM
[6] = second compound 0.0316 µM, first compound 10 µM
[7] = second compound 0.1 µM, first compound 0.0316 µM
[8] = second compound 0.1 µM, first compound 0.1 µM
[9] = second compound 0.1 µM, first compound 0.316 µM
[10] = second compound 0.1 µM, first compound 1 µM
[11] = second compound 0.1 µM, first compound 3.16 µM
[12] = second compound 0.1 µM, first compound 10 µM
[13] = second compound 0.316 µM, first compound 0.0316 µM
[14] = second compound 0.316 µM, first compound 0.1 µM
[15] = second compound 0.316 µM, first compound 0.316 µM
[16] = second compound 0.316 µM, first compound 1 µM
[17] = second compound 0.316 µM, first compound 3.16 µM
[18] = second compound 0.316 µM, first compound 10 µM
[19] = second compound 1 µM, first compound 0.0316 µM
[20] = second compound 1 µM, first compound 0.1 µM
[21] = second compound 1 µM, first compound 0.316 µM
[22] = second compound 1 µM, first compound 1 µM
[23] = second compound 1 µM, first compound 3.16 µM
[24] = second compound 1 µM, first compound 10 µM
[25] = second compound 3.16 µM, first compound 0.0316 µM
[26] = second compound 3.16 µM, first compound 0.1 µM
[27] = second compound 3.16 µM, first compound 0.316 µM
[28] = second compound 3.16 µM, first compound 1 µM
[29] = second compound 3.16 µM, first compound 3.16 µM
[30] = second compound 3.16 µM, first compound 10 µM
[31] = second compound 10 µM, first compound 0.0316 µM
[32] = second compound 10 µM, first compound 0.1 µM
[33] = second compound 10 µM, first compound 0.316 µM
[34] = second compound 10 µM, first compound 1 µM
[35] = second compound 10 µM, first compound 3.16 µM
[36] = second compound 10 µM, first compound 10 µM
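Note: spheroids exposed to compounds for seven days before readout.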

## CC1COCCN1c1cc(C2(O)CC3CCC(C2)O3)c2cnn(-c3ccn[nH]3)c2n1 (stereo unspecified) + Nc1ccc(C#CCN(C(=O)Cc2ncc(C(F)(F)F)cc2C(F)(F)F)c2ccc(F)cc2)nn1
Second compound 0.0316 µM
  IC50: 217 nM
Second compound 0.1 µM
  IC50: 194 nM
Second compound 0.316 µM
  IC50: 174 nM
Second compound 1 µM
  IC50: 170 nM
Second compound 3.16 µM
  IC50: 147 nM
Second compound 10 µM
  IC50: 98.9 nM
[1]
  viability, T/C: 111%
[2]
  viability, T/C: 105%
[3]
  viability, T/C: 23.2%
[4]
  viability, T/C: 12.7%
[5]
  viability, T/C: 11.1%
[6]
  viability, T/C: 7.13%
[7]
  viability, T/C: 139%
[8]
  viability, T/C: 84%
[9]
  viability, T/C: 24.7%
[10]
  viability, T/C: 12%
[11]
  viability, T/C: 11.2%
[12]
  viability, T/C: 5.82%
[13]
  viability, T/C: 117%
[14]
  viability, T/C: 78.9%
[15]
  viability, T/C: 18.5%
[16]
  viability, T/C: 13.2%
[17]
  viability, T/C: 12%
[18]
  viability, T/C: 5.73%
[19]
  viability, T/C: 104%
[20]
  viability, T/C: 72.7%
[21]
  viability, T/C: 23.1%
[22]
  viability, T/C: 10.9%
[23]
  viability, T/C: 10.2%
[24]
  viability, T/C: 5.09%
[25]
  viability, T/C: 107%
[26]
  viability, T/C: 69%
[27]
  viability, T/C: 12.6%
[28]
  viability, T/C: 14.6%
[29]
  viability, T/C: 9.39%
[30]
  viability, T/C: 5.42%
[31]
  viability, T/C: 151%
[32]
  viability, T/C: 48.6%
[33]
  viability, T/C: 17%
[34]
  viability, T/C: 11.1%
[35]
  viability, T/C: 9.46%
[36]
  viability, T/C: 4.88%

## CCc1c2c(nc3ccc(O)cc13)-c1cc3c(c(=O)n1C2)COC(=O)[C@]3(O)CC + COC1C(OC(N)=O)C(O)C(Oc2ccc3c(O)c(NC(=O)c4ccc(O)c(CC=C(C)C)c4)c(=O)oc3c2C)OC1(C)C
Second compound 0.0316 µM
  IC50: < 3.16 nM
Second compound 0.1 µM
  IC50: < 3.16 nM
Second compound 0.316 µM
  IC50: < 3.16 nM
Second compound 1 µM
  IC50: < 3.16 nM
Second compound 3.16 µM
  IC50: < 3.16 nM
Second compound 10 µM
  IC50: < 3.16 nM
Second compound 0.0316 µM, first compound 0.00316 µM
  viability, T/C: 40.8%
Second compound 0.0316 µM, first compound 0.01 µM
  viability, T/C: 16.8%
[1]
  viability, T/C: 7.82%
[2]
  viability, T/C: 5.58%
[3]
  viability, T/C: 4.71%
[4]
  viability, T/C: 1.63%
Second compound 0.1 µM, first compound 0.00316 µM
  viability, T/C: 40.5%
Second compound 0.1 µM, first compound 0.01 µM
  viability, T/C: 14.3%
[7]
  viability, T/C: 8.6%
[8]
  viability, T/C: 6.16%
[9]
  viability, T/C: 3.09%
[10]
  viability, T/C: 1.68%
Second compound 0.316 µM, first compound 0.00316 µM
  viability, T/C: 42.7%
Second compound 0.316 µM, first compound 0.01 µM
  viability, T/C: 15.7%
[13]
  viability, T/C: 9.73%
[14]
  viability, T/C: 5.82%
[15]
  viability, T/C: 4.86%
[16]
  viability, T/C: 1.54%
Second compound 1 µM, first compound 0.00316 µM
  viability, T/C: 33.4%
Second compound 1 µM, first compound 0.01 µM
  viability, T/C: 14.5%
[19]
  viability, T/C: 9.49%
[20]
  viability, T/C: 5.81%
[21]
  viability, T/C: 3.09%
[22]
  viability, T/C: 2.46%
Second compound 3.16 µM, first compound 0.00316 µM
  viability, T/C: 26.4%
Second compound 3.16 µM, first compound 0.01 µM
  viability, T/C: 11.5%
[25]
  viability, T/C: 8.08%
[26]
  viability, T/C: 4.59%
[27]
  viability, T/C: 2.7%
[28]
  viability, T/C: 1.71%
Second compound 10 µM, first compound 0.00316 µM
  viability, T/C: 14.7%
Second compound 10 µM, first compound 0.01 µM
  viability, T/C: 11.2%
[31]
  viability, T/C: 7.82%
[32]
  viability, T/C: 6.39%
[33]
  viability, T/C: 3.19%
[34]
  viability, T/C: 1.43%

## O=C(Nc1ccc(O)c(NS(=O)(=O)c2ccc(F)cc2)c1)c1ccc(-c2ccccc2)cc1 + Cc1cccc(N(C)C(=O)C2C(O)CCN2c2nc(C)cc(C(F)(F)F)c2C#N)c1
Second compound 0.0316 µM
  IC50: > 10000 nM
Second compound 0.1 µM
  IC50: > 10000 nM
Second compound 0.316 µM
  IC50: > 10000 nM
Second compound 1 µM
  IC50: > 10000 nM
Second compound 3.16 µM
  IC50: > 10000 nM
Second compound 10 µM
  IC50: 7890 nM
[1]
  viability, T/C: 113%
[2]
  viability, T/C: 107%
[3]
  viability, T/C: 95%
[4]
  viability, T/C: 85.3%
[5]
  viability, T/C: 106%
[6]
  viability, T/C: 66.2%
[7]
  viability, T/C: 110%
[8]
  viability, T/C: 122%
[9]
  viability, T/C: 98.5%
[10]
  viability, T/C: 92.8%
[11]
  viability, T/C: 109%
[12]
  viability, T/C: 58.4%
[13]
  viability, T/C: 99%
[14]
  viability, T/C: 104%
[15]
  viability, T/C: 108%
[16]
  viability, T/C: 111%
[17]
  viability, T/C: 128%
[18]
  viability, T/C: 60.8%
[19]
  viability, T/C: 97.5%
[20]
  viability, T/C: 123%
[21]
  viability, T/C: 91.6%
[22]
  viability, T/C: 105%
[23]
  viability, T/C: 115%
[24]
  viability, T/C: 59.7%
[25]
  viability, T/C: 88.6%
[26]
  viability, T/C: 124%
[27]
  viability, T/C: 125%
[28]
  viability, T/C: 105%
[29]
  viability, T/C: 120%
[30]
  viability, T/C: 52.7%
[31]
  viability, T/C: 125%
[32]
  viability, T/C: 110%
[33]
  viability, T/C: 125%
[34]
  viability, T/C: 106%
[35]
  viability, T/C: 111%
[36]
  viability, T/C: 34.1%
